Patent US9663789B2, “PME-1 as a biomarker to predict and diagnose endometrial and breast cancer and gene silencing of PME-1 to inhibit epithelial to mesenchymal transition” (MEDICAL DIAGNOSTIC LABORATORIES, LLC, priority 2013, dated 2017)
“Also recorded” adds a separate entry of the source.

Experiments:
Assay type in all cases: cell-based, human
WNT3A = experiment: qRT-PCR of WNT3A expression in RL95-2 cells; conditions: RL95-2, qRT-PCR normalized to 18S
Protocol: (§1) Using RL95-2 endometrial cancer cells, we overexpressed PME-1 (FIG. 21A) or depleted PME-1 with shRNA targeted to PME-1 (SEQ ID NO: 2) (FIG. 21B) and confirmed that PME-1 was appropriately expressed.
(§2) Total RNA was extracted with Qiagen RNAEasy kit from RL95-2 cells. cDNA was synthesized using 500 ng-1 μg of RNA and SuperScript VILO c-DNA mix (Life Technologies). Taqman probes and PCR-mix were purchased from Life Technologies. All samples were run in triplicates. Results are representative of three independent experiments in which genes of interest were normalized to the house-keeping gene, 18S or GAPDH, where fold-change was calculated using the ddCt method.

SFRP1 = experiment: qRT-PCR of SFRP1 expression in RL95-2 cells; conditions: RL95-2, qRT-PCR normalized to 18S
Protocol: as §1, §2

RL95-2 cells = experiment: Foci formation assay, RL95-2 cells; conditions: RL95-2 cells expressing shRNA, compared to control cells
Protocol: A foci forming assay was used to monitor cell growth. Equal amounts of tumor cells were plated and they were allowed to grow for a determined period of time (see Materials and Methods section for details). The foci that were formed were then stained with the crystal violet dye. Cells were washed 3 times with PBS prior to visualization. Numbers of foci were counted and results were averaged among different experiments.
To determine if the loss of active PME-1 accounted for the observed decrease in foci formation, we first treated RL95-2 cells with siRNA against the 3′-UTR of PPME1 (SEQ ID NO: 5 and SEQ ID NO: 6) to decrease endogenous levels of PME-1. […] The S156A PME-1 mutant is not capable of de methylaing its target, PP2A.
(§3) 1,000 cells were plated in a six well tissue culture dish in selection media (to include 5 μg/ml puromycin) (InvivoGen). Cells were allowed to adhere and grow in a 5% CO2, 37° C. incubator for 10 to 14 days. Media was replaced every fourth day. Cells were stained with 1% crystal violet (Sigma Aldrich) for five minutes and rinsed with PBS. Colonies were counted and data is presented as the percentage of change compared to the control. All Experiments were repeated at least three times.

ECC-1 cells = experiment: Foci formation assay, ECC-1 cells; conditions: ECC-1 stable clones, with empty FLAG, PP2A, PP4 or PP6 over-expression, 10 days, vs shSCR
Protocol: FIG. 24 depicts results from a study in which stable clones of ECC-1 cells expressing non-targeting scrambled shRNA (shSCR, black bars) or shPPME-1 (white bars) (SEQ ID NO: 2) and were then transfected with FLAG empty vector, FLAG-PPP2CA, FLAG-PPP4C, or FLAG-PPP6C. Cells (3,000) were plated and were allowed to grow for 10 days. Colonies were then stained with crystal violet and counted. The control cells expressing shSCR and transfected with empty FLAG vector were normalized to 100% foci formation. […] Averages of 6 experiments are plotted and statistical significance was calculated with the Student's T test, where *p<0.05, **p<0.01, ***p<0.001.
We performed a foci formation analysis by transfecting: (i) empty FLAG vector, (ii) FLAG-PPP2CA, (iii) FLAG-PPP4C, or (iv) FLAG-PPP6C into ECC-1 cells that stably expressed either (i) shSCR (non-targeting shRNA, black bars) or (ii) shPPME1 (depletes PME-1 levels, white bars) (FIG. 24).
as §3, with “All Experiments were repeated at least three times.” left out

β-catenin = experiment: Western analysis of β-catenin in RL95-2 cells
Text: We performed Western blot analysis in RL95-2 cells that were expressing empty vector (Control), over-expressing PME-1 (+PME-1) or expressing shRNA against PME-1 (−PME-1) (SEQ ID NO: 2) to examine the protein stability of β-catenin (FIG. 19A). We observed a decrease in total β-catenin protein in cells that were over-expressing PME-1. This observation is correlated with the predicted ubiquitylation of β-catenin and its degradation.
In another series of study, we performed a similar assay in which cells were treated with 10 μM MG-132 prior to protein extraction. MG-132 is a proteasome inhibitor and therefore allows for the accumulation of phosphorylated β-catenin, which is normally quickly degraded, to be detected by western analysis.
15 μg of protein was used for western analysis. PME-1 antibody (Santa Cruz) and COXIV (Cell Signaling Technologies) were used for detection of proteins and the blots were developed using chemiluminescence (Pierce ECL Western Blotting Substrate—Thermo Scientific) on the GE ImageQuant LAS 4000. For analysis of Akt, ERK, and β-catenin signaling in tissue culture, western analyses were completed as follows. RL95-2 cells stably infected with lentivirus expressing constructs were selected with puromycin (Invivogen). […]

PP2A = PP2A phosphatase assay on RL95-2 whole cell lysates; conditions: RL95-2 cells, vs control (non-targeting)
Text: Because PME-1 is a known inhibitor of PP2A, we confirmed in this study that depletion of PME-1 by siRNA led to an increase in PP2A activity in cells. To do so, we treated RL95-2 cells with either non-targeting siRNA (Control) or siRNA targeted against PPME1 (e.g., SEQ ID NO: 5 and SEQ ID NO: 6). PP2A activity was monitored using a phosphatase assay (R&D Systems Duo IC Set phosphatase assay kit). In the phosphatase assay, we used […] of whole cell extract and followed the manufacturer's recommendations.
Whole cell lysates were used with the DuoSet IC PP2A Phosphatase Assay Kit (R&D Systems). Procedure was carried out as per kit instructions with 500 μg protein and the absorbance was measured at 620 nm. The assay was repeated twice with similar results.

WNT3 = experiment: qRT-PCR of WNT3 expression in RL95-2 cells; conditions: RL95-2, qRT-PCR normalized to 18S
Protocol: as §1, §2

## shRNA (SEQ ID NO: 2): lentiviral shRNA against PPME1, target sequence SEQ ID NO: 2 GCAGCGATTATTAGTAGAGTT, bp 289-309; hairpin SEQ ID NO: 8 (CCGGGCAGCGATTATTAGTAGAGTTCTCGAGAACTCTACTAATAATCGCTGCTTTTT; listed as Homo sapiens)
WNT3A
  WNT3A expression: significantly decreased
SFRP1
  SFRP1 expression: significantly increased; also recorded: significant increase in SFRP1 expression
RL95-2 cells
  decrease in foci: 75%
ECC-1 cells; listed as shPPME1 (SEQ ID NO: 2)
  foci formation: significant decrease in foci formation
ECC-1 cells; listed as shPPME-1 (SEQ ID NO: 2)
  foci formation: significant decrease in foci formed
β-catenin; RL95-2, absence of MG-132
  total β-catenin protein (Western): stabilization of total β-catenin
β-catenin; RL95-2, treated with 10 μM MG-132, compared to control cells
  phosphorylated β-catenin (Western): did not lead to an increase in phosphorylated β-catenin
PP2A
  increase in PP2A phosphatase activity: 30 fold
WNT3
  WNT3 expression: significantly decreased
